Measurements from US11053213B2, “Pharmaceutical compounds” (ALMAC DISCOVERY LIMITED, priority 2016, dated 2021).

Biological target: USP19 (Homo sapiens (Human), UniProt O94966)
Assay: USP19 activity assay (fluorescence polarisation, Ubiquitin-Lys-TAMRA substrate)
Type: biochemical
Settings: full-length USP19 2.5 nM, 30 min pre-incubation, Ub substrate 500 nM; average of at least two duplicate experiments

Chain of USP19 (O94966 whole entry): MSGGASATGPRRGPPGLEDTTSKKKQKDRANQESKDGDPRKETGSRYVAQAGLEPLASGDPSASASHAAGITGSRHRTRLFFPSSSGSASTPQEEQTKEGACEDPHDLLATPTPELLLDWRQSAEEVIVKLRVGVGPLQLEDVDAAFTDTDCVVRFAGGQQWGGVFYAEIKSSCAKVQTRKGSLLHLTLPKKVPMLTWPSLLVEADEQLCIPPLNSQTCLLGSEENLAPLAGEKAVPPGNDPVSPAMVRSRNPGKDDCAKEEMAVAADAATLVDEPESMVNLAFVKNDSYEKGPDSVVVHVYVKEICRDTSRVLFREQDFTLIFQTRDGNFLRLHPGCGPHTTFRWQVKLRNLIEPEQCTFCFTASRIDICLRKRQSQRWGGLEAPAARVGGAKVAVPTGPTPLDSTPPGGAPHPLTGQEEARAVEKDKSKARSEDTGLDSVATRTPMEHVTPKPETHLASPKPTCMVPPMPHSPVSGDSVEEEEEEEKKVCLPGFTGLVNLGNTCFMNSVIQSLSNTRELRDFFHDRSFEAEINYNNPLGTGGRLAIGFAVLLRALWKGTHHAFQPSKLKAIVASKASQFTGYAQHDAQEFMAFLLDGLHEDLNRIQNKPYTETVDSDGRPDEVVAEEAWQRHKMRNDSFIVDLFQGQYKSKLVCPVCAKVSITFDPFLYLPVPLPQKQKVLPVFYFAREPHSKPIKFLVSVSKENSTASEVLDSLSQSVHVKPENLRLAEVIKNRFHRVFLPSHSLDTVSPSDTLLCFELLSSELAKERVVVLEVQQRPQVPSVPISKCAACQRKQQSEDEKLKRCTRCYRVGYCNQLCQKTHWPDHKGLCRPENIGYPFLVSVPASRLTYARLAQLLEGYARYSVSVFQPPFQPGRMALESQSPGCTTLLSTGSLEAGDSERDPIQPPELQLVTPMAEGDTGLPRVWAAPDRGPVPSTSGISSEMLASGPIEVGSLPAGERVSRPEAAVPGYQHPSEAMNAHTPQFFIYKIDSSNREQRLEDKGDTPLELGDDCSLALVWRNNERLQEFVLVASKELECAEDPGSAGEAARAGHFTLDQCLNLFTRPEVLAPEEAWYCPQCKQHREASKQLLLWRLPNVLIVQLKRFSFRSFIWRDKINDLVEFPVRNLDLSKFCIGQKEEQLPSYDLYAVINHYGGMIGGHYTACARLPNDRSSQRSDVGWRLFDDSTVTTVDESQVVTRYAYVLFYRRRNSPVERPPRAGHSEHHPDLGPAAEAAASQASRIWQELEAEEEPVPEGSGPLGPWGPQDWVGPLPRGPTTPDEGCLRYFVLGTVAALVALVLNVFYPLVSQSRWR

IC50 [µM] | SMILES
5 to 50 | CC(CN1CCOCC1)C(=O)N1CCC(O)(Cn2cc(C(=O)N(C)C)c(-c3ccccc3)cc2=O)C2(CCCC2)C1 (centres unmarked) [Example 163, 1-((10-Hydroxy-7-(2-methyl-3-morpholinopropanoyl)-7-azaspiro[4.5]decan-10-yl)methyl)-N,N-dimethyl-6-oxo-4-phenyl-1,6-dihydropyridine-3-carboxamide]
5 to 50 | CC[C@@H](C)C(=O)N1CCC(O)(Cn2cc(C(=O)N(C)C)c(-c3ccccc3)cc2=O)C2(CCCC2)C1 (stereo partly drawn) [Example 148, 1-((10-Hydroxy-7-((R)-2-methylbutanoyl)-7-azaspiro[4.5]decan-10-yl)methyl)-N,N-dimethyl-6-oxo-4-phenyl-1,6-dihydropyridine-3-carboxamide]
50 to 250 | CC(CN1CCCCC1)C(=O)N1CCC(O)(Cn2cc(C(=O)N(C)C)c(-c3ccccc3)cc2=O)C2(CCCC2)C1 (centres unmarked) [Example 158, 1-((10-Hydroxy-7-(2-methyl-3-(piperidin-1-yl)propanoyl)-7-azaspiro[4.5]decan-10-yl)methyl)-N,N-dimethyl-6-oxo-4-phenyl-1,6-dihydropyridine-3-carboxamide]
< 0.5 | C[C@H](CC1CCCCC1)C(=O)N1CC[C@@](O)(Cn2cc(C(=O)N(C)C)c(-c3ccccc3)cc2=O)C2(CCCC2)C1 [Example 211, 1-(((S)-7-((R)-3-Cyclohexyl-2-methylpropanoyl)-10-hydroxy-7-azaspiro[4.5]decan-10-yl)methyl)-N,N-dimethyl-6-oxo-4-phenyl-1,6-dihydropyridine-3-carboxamide]

Further lines, the compound ahead of its results:

SMILES | IC50 [µM]
O=C(CCC1CCCC1)N1CCC(O)(Cn2cnc(-c3ccccc3F)cc2=O)CC1 [Example 4, 3-((1-(3-Cyclopentylpropanoyl)-4-hydroxypiperidin-4-yl)methyl)-6-(2-fluorophenyl)pyrimidin-4(3H)-one] | 50 to 250
C[C@H](CC(=O)N1CCC(O)(Cn2cc(-c3ccco3)c(-c3ccccc3)cc2=O)CC1)c1ccccc1 [Example 8, (R)-5-(Furan-2-yl)-1-((4-hydroxy-1-(3-phenylbutanoyl)piperidin-4-yl)methyl)-4-phenylpyridin-2(1H)-one] | 5 to 50
C[C@H](CC(=O)N1CCC(O)(Cn2cc(-c3ccccc3)c(N(C)C)cc2=O)CC1)c1ccccc1 [Example 11, (R)-4-(Dimethylamino)-1-((4-hydroxy-1-(3-phenylbutanoyl)piperidin-4-yl)methyl)-5-phenylpyridin-2(1H)-one] | 50 to 250
CN(C)C(=O)c1cn(CC2(O)CCN(C(=O)c3n[nH]c4ccccc34)CC23CCCC3)c(=O)cc1-c1ccccc1 (centres unmarked) [Example 188, 1-((10-Hydroxy-7-(1H-indazole-3-carbonyl)-7-azaspiro[4.5]decan-10-yl)methyl)-N,N-dimethyl-6-oxo-4-phenyl-1,6-dihydropyridine-3-carboxamide] | 50 to 250
CN(C)C(=O)c1cn(CC2(O)CCN(C(=O)c3cc[nH]n3)CC23CCCC3)c(=O)cc1-c1ccccc1 (centres unmarked) [Example 187, 1-((10-Hydroxy-7-(1H-pyrazole-3-carbonyl)-7-azaspiro[4.5]decan-10-yl)methyl)-N,N-dimethyl-6-oxo-4-phenyl-1,6-dihydropyridine-3-carboxamide] | 50 to 250
C[C@H](CC1CCC1)C(=O)N1CC[C@@](O)(Cn2cc(C(=O)N(C)C)c(-c3ccccc3F)cc2=O)C2(CCCC2)C1 [Example 222, 1-(((S)-7-((R)-3-Cyclobutyl-2-methylpropanoyl)-10-hydroxy-7-azaspiro[4.5]decan-10-yl)methyl)-4-(2-fluorophenyl)-N,N-dimethyl-6-oxo-1,6-dihydropyridine-3-carboxamide] | < 0.5
C[C@H](CC1CCCCC1)C(=O)N1CCC(O)(Cn2cnc(-c3ccccc3CO)cc2=O)C(C)(C)C1 (stereo partly drawn) [Example 137, 3-((1-((R)-3-Cyclohexyl-2-methylpropanoyl)-4-hydroxy-3,3-dimethylpiperidin-4-yl)methyl)-6-(2-(hydroxymethyl)phenyl)pyrimidin-4(3H)-one] | 0.5 to 5
